Reference: patent publication EP4745135A1 (Gluetacs Therapeutics (Shanghai) Co., Ltd., priority 2023, dated 2025)

Columns and labels:
[1] = molecular target: T1, human Cereblon WT GST-tagged protein (Homo sapiens, UniProt Q96SW2); experiment: CRBN-binding affinity, HTRF (CEREBLON BINDING kit); details: for inhibition at 0.5 µM: read-out: Inhibition Rate at 0.5 µM (%); for inhibition at 2 µM: read-out: Inhibition Rate at 2 µM (%)
T1 construct: purchased CISBIO 64BDCRBNPEH

GSPT1 = experiment: Western blot, degradation of substrate protein in hPBMCs; format: cell-based, Human
IKZF3 = molecular target: T2, IKZF3 (Homo sapiens, UniProt Q96SW2+Q9UKT9); experiment: as above; format: cell-based
T2 construct: effects of the compounds of the present disclosure on the expression of target proteins in cells; endogenous in cells; host or cells: human PBMCs (Milecell Biotechnologies)
T2 sequence (Q9UKT9 whole entry): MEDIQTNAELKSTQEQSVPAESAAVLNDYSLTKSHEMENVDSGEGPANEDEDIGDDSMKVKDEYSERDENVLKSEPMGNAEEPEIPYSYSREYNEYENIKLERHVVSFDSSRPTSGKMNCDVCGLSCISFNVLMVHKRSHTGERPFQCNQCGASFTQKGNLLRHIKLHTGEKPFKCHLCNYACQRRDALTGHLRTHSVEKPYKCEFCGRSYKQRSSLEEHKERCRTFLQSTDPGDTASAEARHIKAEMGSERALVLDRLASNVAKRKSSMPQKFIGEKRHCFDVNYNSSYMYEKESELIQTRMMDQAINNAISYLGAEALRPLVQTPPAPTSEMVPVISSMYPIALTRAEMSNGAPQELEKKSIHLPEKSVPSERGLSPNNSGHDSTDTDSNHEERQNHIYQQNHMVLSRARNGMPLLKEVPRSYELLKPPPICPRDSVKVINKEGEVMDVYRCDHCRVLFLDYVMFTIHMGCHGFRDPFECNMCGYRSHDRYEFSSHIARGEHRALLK
T2 sequence (Q96SW2 whole entry): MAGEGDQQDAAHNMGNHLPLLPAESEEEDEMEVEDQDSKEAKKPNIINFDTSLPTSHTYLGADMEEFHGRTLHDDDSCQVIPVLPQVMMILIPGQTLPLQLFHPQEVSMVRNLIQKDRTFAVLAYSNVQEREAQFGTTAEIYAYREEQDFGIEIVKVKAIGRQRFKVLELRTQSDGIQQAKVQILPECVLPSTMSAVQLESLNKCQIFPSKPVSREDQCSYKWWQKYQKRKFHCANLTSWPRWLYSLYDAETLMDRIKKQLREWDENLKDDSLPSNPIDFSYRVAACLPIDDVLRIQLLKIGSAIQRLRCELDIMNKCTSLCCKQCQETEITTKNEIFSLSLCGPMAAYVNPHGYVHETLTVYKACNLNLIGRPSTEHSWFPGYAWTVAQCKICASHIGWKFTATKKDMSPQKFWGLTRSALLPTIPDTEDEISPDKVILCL
T2 sequence (Q16531 whole entry partner): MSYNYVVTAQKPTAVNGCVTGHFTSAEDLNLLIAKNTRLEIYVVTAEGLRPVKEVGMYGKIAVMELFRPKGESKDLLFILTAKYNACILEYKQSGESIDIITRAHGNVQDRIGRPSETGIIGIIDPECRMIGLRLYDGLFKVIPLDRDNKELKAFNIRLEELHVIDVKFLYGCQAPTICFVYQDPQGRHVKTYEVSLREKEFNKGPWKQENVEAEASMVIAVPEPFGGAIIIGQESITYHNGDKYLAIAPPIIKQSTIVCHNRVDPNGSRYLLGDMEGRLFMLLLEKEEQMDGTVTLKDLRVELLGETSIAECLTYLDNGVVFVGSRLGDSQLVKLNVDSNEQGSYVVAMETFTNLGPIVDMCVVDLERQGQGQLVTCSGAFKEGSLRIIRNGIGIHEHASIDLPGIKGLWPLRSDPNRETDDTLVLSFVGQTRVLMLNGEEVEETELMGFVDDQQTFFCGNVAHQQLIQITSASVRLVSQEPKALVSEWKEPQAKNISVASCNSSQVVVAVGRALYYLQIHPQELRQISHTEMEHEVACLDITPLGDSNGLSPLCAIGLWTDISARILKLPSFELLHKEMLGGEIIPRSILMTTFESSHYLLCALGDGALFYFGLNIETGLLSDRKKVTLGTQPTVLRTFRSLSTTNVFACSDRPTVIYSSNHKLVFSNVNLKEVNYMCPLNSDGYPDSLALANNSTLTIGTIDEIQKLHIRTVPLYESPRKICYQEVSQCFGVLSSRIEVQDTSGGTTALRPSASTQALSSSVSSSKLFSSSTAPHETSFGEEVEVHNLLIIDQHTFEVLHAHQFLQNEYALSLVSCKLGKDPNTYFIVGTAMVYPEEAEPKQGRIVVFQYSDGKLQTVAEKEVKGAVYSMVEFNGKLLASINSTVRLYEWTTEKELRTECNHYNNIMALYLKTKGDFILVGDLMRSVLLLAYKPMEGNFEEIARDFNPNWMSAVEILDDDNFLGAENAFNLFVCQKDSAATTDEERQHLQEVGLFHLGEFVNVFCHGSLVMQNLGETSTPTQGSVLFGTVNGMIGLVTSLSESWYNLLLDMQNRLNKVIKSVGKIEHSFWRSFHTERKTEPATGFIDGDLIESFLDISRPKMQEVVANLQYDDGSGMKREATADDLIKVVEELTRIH

IKZF2 = molecular target: T3, IKZF2 (Homo sapiens, UniProt Q96SW2+Q9UKS7); experiment: as above; format: cell-based
T3 construct: effects of the compounds of the present disclosure on the expression of target proteins in cells; endogenous in cells; host or cells: human PBMCs (Milecell Biotechnologies)
T3 sequence (Q9UKS7 whole entry): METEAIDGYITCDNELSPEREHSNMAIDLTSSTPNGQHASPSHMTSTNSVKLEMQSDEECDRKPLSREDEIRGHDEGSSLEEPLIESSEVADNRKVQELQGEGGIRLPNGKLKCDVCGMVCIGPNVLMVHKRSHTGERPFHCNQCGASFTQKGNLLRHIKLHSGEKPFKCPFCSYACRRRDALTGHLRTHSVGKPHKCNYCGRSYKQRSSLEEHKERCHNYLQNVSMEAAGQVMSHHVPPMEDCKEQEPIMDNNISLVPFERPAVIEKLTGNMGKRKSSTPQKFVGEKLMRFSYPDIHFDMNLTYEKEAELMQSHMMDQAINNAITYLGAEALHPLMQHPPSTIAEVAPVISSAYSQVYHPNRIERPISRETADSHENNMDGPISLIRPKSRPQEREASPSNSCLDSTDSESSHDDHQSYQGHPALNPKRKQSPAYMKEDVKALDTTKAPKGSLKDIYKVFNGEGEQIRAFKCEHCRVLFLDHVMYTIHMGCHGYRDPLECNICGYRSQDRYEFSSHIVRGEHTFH
T3 sequence (Q96SW2 whole entry): as the sequence (Q96SW2 whole entry) above
T3 sequence (Q16531 whole entry partner): as the sequence (Q16531 whole entry partner) above

IKZF1 = molecular target: T4, IKZF1 (Homo sapiens, UniProt Q13422+Q96SW2); experiment: as above; format: cell-based
T4 construct: effects of the compounds of the present disclosure on the expression of target proteins in cells; endogenous in cells; host or cells: human PBMCs (Milecell Biotechnologies)
T4 sequence (Q13422 whole entry): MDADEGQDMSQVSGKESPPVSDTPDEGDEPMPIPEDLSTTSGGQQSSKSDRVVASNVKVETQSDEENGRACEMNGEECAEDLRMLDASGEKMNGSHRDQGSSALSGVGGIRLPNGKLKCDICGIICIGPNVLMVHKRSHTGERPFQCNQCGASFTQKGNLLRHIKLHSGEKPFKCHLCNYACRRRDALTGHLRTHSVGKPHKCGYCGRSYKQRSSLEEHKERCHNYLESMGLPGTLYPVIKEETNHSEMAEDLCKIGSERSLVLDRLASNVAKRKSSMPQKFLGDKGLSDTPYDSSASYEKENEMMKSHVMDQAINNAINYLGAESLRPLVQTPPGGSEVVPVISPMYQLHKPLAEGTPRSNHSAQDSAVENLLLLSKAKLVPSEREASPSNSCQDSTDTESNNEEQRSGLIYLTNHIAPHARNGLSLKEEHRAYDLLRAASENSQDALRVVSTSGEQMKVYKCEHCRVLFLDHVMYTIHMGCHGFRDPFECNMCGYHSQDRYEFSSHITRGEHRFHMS
T4 sequence (Q96SW2 whole entry): as the sequence (Q96SW2 whole entry) above
T4 sequence (Q16531 whole entry partner): as the sequence (Q16531 whole entry partner) above

CK1α = molecular target: T5, CK1α (Homo sapiens, UniProt P48729+Q96SW2); experiment: as above; format: cell-based
T5 construct: effects of the compounds of the present disclosure on the expression of target proteins in cells; endogenous in cells; host or cells: human PBMCs (Milecell Biotechnologies)
T5 sequence (P48729 whole entry): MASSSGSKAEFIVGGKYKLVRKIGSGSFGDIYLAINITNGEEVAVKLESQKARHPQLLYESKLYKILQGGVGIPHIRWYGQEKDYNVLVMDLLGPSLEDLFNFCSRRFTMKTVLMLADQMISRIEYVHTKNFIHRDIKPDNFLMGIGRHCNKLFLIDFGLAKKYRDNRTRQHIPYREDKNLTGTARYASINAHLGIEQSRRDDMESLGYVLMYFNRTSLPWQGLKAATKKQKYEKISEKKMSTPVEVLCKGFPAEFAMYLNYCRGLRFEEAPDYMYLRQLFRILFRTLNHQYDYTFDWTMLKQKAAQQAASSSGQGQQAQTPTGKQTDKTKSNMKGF
T5 sequence (Q96SW2 whole entry): as the sequence (Q96SW2 whole entry) above
T5 sequence (Q16531 whole entry partner): as the sequence (Q16531 whole entry partner) above

WEE1 = molecular target: T6, WEE1 (Homo sapiens, UniProt P30291+Q96SW2); experiment: as above; format: cell-based
T6 construct: effects of the compounds of the present disclosure on the expression of target proteins in cells; endogenous in cells; host or cells: human PBMCs (Milecell Biotechnologies)
T6 sequence (P30291 whole entry): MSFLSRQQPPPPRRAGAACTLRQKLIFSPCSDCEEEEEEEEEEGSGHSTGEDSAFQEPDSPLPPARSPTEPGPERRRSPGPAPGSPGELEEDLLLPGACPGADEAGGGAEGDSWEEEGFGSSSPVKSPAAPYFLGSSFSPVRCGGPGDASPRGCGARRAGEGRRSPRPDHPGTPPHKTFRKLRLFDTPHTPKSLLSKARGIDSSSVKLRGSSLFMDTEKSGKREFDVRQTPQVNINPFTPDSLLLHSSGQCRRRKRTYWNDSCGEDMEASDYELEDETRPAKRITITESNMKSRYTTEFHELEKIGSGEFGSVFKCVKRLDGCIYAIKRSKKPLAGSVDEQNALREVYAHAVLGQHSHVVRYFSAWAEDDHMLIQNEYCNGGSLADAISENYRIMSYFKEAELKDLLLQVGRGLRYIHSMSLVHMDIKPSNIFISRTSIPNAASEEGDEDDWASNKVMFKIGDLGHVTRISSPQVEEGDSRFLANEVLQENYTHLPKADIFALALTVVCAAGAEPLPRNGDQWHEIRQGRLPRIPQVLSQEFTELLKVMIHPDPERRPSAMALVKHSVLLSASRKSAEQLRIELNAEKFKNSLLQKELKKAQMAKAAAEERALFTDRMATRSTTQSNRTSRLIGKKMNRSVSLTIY
T6 sequence (Q96SW2 whole entry): as the sequence (Q96SW2 whole entry) above
T6 sequence (Q16531 whole entry partner): as the sequence (Q16531 whole entry partner) above

[2] = Western blot, 24 hours of compound treatment, compounds tested at 50 nM and 500 nM (concentration for the table not stated)
[3] = 24 hours treatment, compounds at 50 nM and 500 nM (concentration behind the class not stated)

T1 sequence (Q96SW2 whole entry): as the sequence (Q96SW2 whole entry) above

Row | inhibition at 0.5 µM [1] | inhibition at 2 µM [1] | IC50 ([1]; CRBN binding, HTRF, 3 hours at room temperature, read-out: HTRF IC50) | SMILES | GSPT1 substrate protein remaining % (GSPT1; [2]) | IKZF3 substrate protein remaining % (IKZF3; [2]) | IKZF2 substrate protein remaining % (IKZF2; [2]) | IKZF 1 substrate protein remaining % (IKZF1; [2]) | CK1α substrate protein remaining % (CK1α; [2]) | Wee1 substrate protein remaining % (WEE1; [2]) | GSPT1 substrate protein remaining % (GSPT1; [3]) | IKZF3 substrate protein remaining % (IKZF3; [3]) | IKZF2 substrate protein remaining % (IKZF2; [3]) | IKZF 1 substrate protein remaining % (IKZF1; [3]) | CK1α substrate protein remaining % (CK1α; [3]) | Wee1 substrate protein remaining % (WEE1; [3])
1 | 40 to 53% | 60 to 80% | – | O=C1CCC(N2Cc3c(CN4CCN(c5ccccc5)CC4)cccc3C2=S)C(=O)N1 (centres unmarked) [GT-08259, 3-(4-((4-phenylpiperazin-1-yl)methyl)-1-thioxoisoindolin-2-yl)piperidine-2,6-dione] | A (0% ≤ substrate protein remaining % ≤ 80%) | B (80%< substrate protein remaining %≤ 100%) | B (80%< substrate protein remaining %≤ 100%) | B (80%< substrate protein remaining %≤ 100%) | B (80%< substrate protein remaining %≤ 100%) | A (0% ≤ substrate protein remaining % ≤ 80%) | – | – | – | – | – | –
2 | 40 to 53% | 80 to 100% | – | CC1(C)CC(c2ccc(Cl)cc2)=C(CN2CCN(Cc3ccc4c(c3)CN(C3CCC(=O)NC3=O)C4=S)CC2)CO1 (centres unmarked) [GT-08167, 3-(5-((4-((4-(4-chlorophenyl)-6,6-dimethyl-5,6-dihydro-2H-pyran-3-yl)methyl)piperazin-1-yl)methyl)-1-thioxoisoindolin-2-yl)piperidine-2,6-dione] | – | – | – | – | – | – | A (0% ≤ substrate protein remaining % ≤ 80%) | A (0% ≤ substrate protein remaining % ≤ 80%) | A (0% ≤ substrate protein remaining % ≤ 80%) | B (80%< substrate protein remaining %≤ 100%) | B (80%< substrate protein remaining %≤ 100%) | A (0% ≤ substrate protein remaining % ≤ 80%)
3 | 60 to 80% | 80 to 100% | – | O=C1CCC(N2Cc3c(CN4CCN(c5cccnn5)CC4)cccc3C2=S)C(=O)N1 (centres unmarked) [GT-08810, 3-(4-((4-(pyridazin-3-yl)piperazin-1-yl)methyl)-1-thioxoisoindolin-2-yl)piperidine-2,6-dione] | B (80%< substrate protein remaining %≤ 100%) | B (80%< substrate protein remaining %≤ 100%) | B (80%< substrate protein remaining %≤ 100%) | B (80%< substrate protein remaining %≤ 100%) | B (80%< substrate protein remaining %≤ 100%) | A (0% ≤ substrate protein remaining % ≤ 80%) | – | – | – | – | – | –
4 | 40 to 53% | 60 to 80% | – | O=C1CCC(N2Cc3c(CN4CCn5c(nnc5C(F)(F)F)C4)cccc3C2=S)C(=O)N1 (centres unmarked) [GT-08365, 3-(1-thioxo-4-((3-(trifluoromethyl)-5,6-dihydro-[1,2,4]triazolo[4,3-a]pyrazin-7(8H)-yl)methyl)isoindolin-2-yl)piperidine-2,6-dione] | A (0% ≤ substrate protein remaining % ≤ 80%) | B (80%< substrate protein remaining %≤ 100%) | B (80%< substrate protein remaining %≤ 100%) | B (80%< substrate protein remaining %≤ 100%) | B (80%< substrate protein remaining %≤ 100%) | B (80%< substrate protein remaining %≤ 100%) | – | – | – | – | – | –
5 | 40 to 53% | 60 to 80% | – | O=C1CCC(N2Cc3c(CN4CCC(c5cccc(Br)c5)CC4)cccc3C2=S)C(=O)N1 (centres unmarked) [GT-08507, 3-(4-((4-(3-bromophenyl)piperidin-1-yl)methyl)-1-thioxoisoindolin-2-yl)piperidine-2,6-dione] | B (80%< substrate protein remaining %≤ 100%) | A (0% ≤ substrate protein remaining % ≤ 80%) | B (80%< substrate protein remaining %≤ 100%) | B (80%< substrate protein remaining %≤ 100%) | B (80%< substrate protein remaining %≤ 100%) | A (0% ≤ substrate protein remaining % ≤ 80%) | – | – | – | – | – | –
6 | 60 to 80% | 80 to 100% | – | O=C1CCC(N2Cc3cc(CN4CCN(c5ncccc5Cl)CC4)ccc3C2=S)C(=O)N1 (centres unmarked) [GT-09219, 3-(5-((4-(3-chloropyridin-2-yl)piperazin-1-yl)methyl)-1-thioxoisoindolin-2-yl)piperidine-2,6-dione] | A (0% ≤ substrate protein remaining % ≤ 80%) | B (80%< substrate protein remaining %≤ 100%) | A (0% ≤ substrate protein remaining % ≤ 80%) | B (80%< substrate protein remaining %≤ 100%) | B (80%< substrate protein remaining %≤ 100%) | B (80%< substrate protein remaining %≤ 100%) | – | – | – | – | – | –
7 | 30 to 40% | 60 to 80% | – | O=C1CCC(N2Cc3c(CN4CCC(c5ncnc6sc(-c7ccccc7)cc56)CC4)cccc3C2=S)C(=O)N1 (centres unmarked) [GT-08929, 3-(4-((4-(6-phenylthieno[2,3-d]pyrimidin-4-yl)piperidin-1-yl)methyl)-1-thioxoisoindolin-2-yl)piperidine-2,6-dione] | – | – | – | – | – | – | B (80%< substrate protein remaining %≤ 100%) | B (80%< substrate protein remaining %≤ 100%) | B (80%< substrate protein remaining %≤ 100%) | B (80%< substrate protein remaining %≤ 100%) | B (80%< substrate protein remaining %≤ 100%) | A (0% ≤ substrate protein remaining % ≤ 80%)
8 | 60 to 80% | 80 to 100% | – | O=C1CCC(N2Cc3c(CN4CCN(c5c[nH]c6ncccc56)CC4)cccc3C2=S)C(=O)N1 (centres unmarked) [GT-08841, 3-(4-((4-(1H-pyrrolo[2,3-b]pyridin-3-yl)piperazin-1-yl)methyl)-1-thioxoisoindolin-2-yl)piperidine-2,6-dione] | A (0% ≤ substrate protein remaining % ≤ 80%) | B (80%< substrate protein remaining %≤ 100%) | B (80%< substrate protein remaining %≤ 100%) | B (80%< substrate protein remaining %≤ 100%) | B (80%< substrate protein remaining %≤ 100%) | A (0% ≤ substrate protein remaining % ≤ 80%) | – | – | – | – | – | –
9 | 80 to 100% | 80 to 100% | – | O=C1CCC(N2Cc3cc(CN4CCN(c5ccsc5)CC4)ccc3C2=S)C(=O)N1 (centres unmarked) [GT-08169, 3-(5-((4-(thiophen-3-yl)piperazin-1-yl)methyl)-1-thioxoisoindolin-2-yl)piperidine-2,6-dione] | – | – | – | – | – | – | A (0% ≤ substrate protein remaining % ≤ 80%) | B (80%< substrate protein remaining %≤ 100%) | B (80%< substrate protein remaining %≤ 100%) | B (80%< substrate protein remaining %≤ 100%) | B (80%< substrate protein remaining %≤ 100%) | A (0% ≤ substrate protein remaining % ≤ 80%)
10 | 60 to 80% | 80 to 100% | – | O=C1CCC(N2Cc3cc(CN4CCN(C(c5ccccn5)c5ccccn5)CC4)ccc3C2=S)C(=O)N1 (centres unmarked) [GT-07734, 3-(5-((4-(di(pyridin-2-yl)methyl)piperazin-1-yl)methyl)-1-thioxoisoindolin-2-yl)piperidine-2,6-dione] | A (0% ≤ substrate protein remaining % ≤ 80%) | A (0% ≤ substrate protein remaining % ≤ 80%) | B (80%< substrate protein remaining %≤ 100%) | B (80%< substrate protein remaining %≤ 100%) | B (80%< substrate protein remaining %≤ 100%) | A (0% ≤ substrate protein remaining % ≤ 80%) | – | – | – | – | – | –
11 | – | – | 100 to 500 nM | O=C1CCC(N2Cc3ccc(CO)cc3C2=S)C(=O)N1 (centres unmarked) [GT-05566, 3-(6-(hydroxymethyl)-1-thioxoisoindolin-2-yl)piperidine-2,6-dione] | – | – | – | – | – | – | B (80%< substrate protein remaining %≤ 100%) | A (0% ≤ substrate protein remaining % ≤ 80%) | A (0% ≤ substrate protein remaining % ≤ 80%) | A (0% ≤ substrate protein remaining % ≤ 80%) | B (80%< substrate protein remaining %≤ 100%) | A (0% ≤ substrate protein remaining % ≤ 80%)
12 | 80 to 100% | 80 to 100% | – | O=C1CCC(N2Cc3c(CN4CCN(c5nc(Cl)nc6c5SCC6)CC4)cccc3C2=S)C(=O)N1 (centres unmarked) [GT-08966, 3-(4-((4-(2-chloro-6,7-dihydrothieno[3,2-d]pyrimidin-4-yl)piperazin-1-yl)methyl)-1-thioxoisoindolin-2-yl)piperidine-2,6-dione] | – | – | – | – | – | – | A (0% ≤ substrate protein remaining % ≤ 80%) | B (80%< substrate protein remaining %≤ 100%) | B (80%< substrate protein remaining %≤ 100%) | B (80%< substrate protein remaining %≤ 100%) | B (80%< substrate protein remaining %≤ 100%) | B (80%< substrate protein remaining %≤ 100%)
